Results published in US6943174B2, “6,5-Fused bicyclic heterocycles” (Warner-Lambert Company, priority 2000, dated 2005).

Assays:
human 15-LO = biological target: T1, human 15-LO (Homo sapiens, UniProt P16050); test: Human Lysate 15-LO Assay (HUM15LO); assay type: biochemical; settings: 15-LO catalyzed oxidation of linoleic acid, 15 minutes at 4° C.
T1 construct: made in house; host or cells: Sf9 insect cells (baculovirus, Bac-to-Bac)
T1 sequence (P16050 1-662): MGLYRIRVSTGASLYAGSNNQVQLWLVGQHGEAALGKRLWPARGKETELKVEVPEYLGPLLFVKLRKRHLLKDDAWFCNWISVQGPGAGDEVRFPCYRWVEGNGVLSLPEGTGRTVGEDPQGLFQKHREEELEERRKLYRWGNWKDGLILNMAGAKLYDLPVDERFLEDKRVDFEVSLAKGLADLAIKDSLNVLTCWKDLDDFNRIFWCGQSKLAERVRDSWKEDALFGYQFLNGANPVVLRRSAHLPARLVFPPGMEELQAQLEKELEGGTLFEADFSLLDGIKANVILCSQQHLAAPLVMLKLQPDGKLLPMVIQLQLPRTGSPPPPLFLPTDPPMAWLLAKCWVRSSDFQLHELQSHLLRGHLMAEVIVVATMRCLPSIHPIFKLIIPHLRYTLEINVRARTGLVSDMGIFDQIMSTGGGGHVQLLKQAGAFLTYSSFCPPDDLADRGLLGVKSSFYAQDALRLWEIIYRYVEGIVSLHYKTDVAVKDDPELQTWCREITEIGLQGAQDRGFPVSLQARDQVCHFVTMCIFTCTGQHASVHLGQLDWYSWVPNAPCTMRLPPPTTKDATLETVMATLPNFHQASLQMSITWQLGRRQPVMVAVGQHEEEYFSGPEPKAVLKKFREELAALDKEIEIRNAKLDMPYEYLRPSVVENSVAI
Method: The HUM15LO assay measures inhibition of 15-LO catalyzed oxidation of linoleic acid to the hydroperoxy fatty acid 13-(S)HPODE, a conjugated diene. In the HUM15LO assay, a test compound was incubated with 15-LO enzyme in the presence of the linoleic acid substrate. For example, a known amount of a compound of the present invention and 100 μL of human 15-LO and 174 μM of linoleic acid in PBS containing 0.2% sodium cholate were incubated for 15 minutes at 4° C. The test reaction was stopped with 100 μL of mobile phase and 10 μL of triethyl phosphite. […] 13-HPODE was quantitated by comparing peak areas of individual samples with those from a standard curve generated using authentic 13-HODE. The test reaction was compared to a control reaction, which is identical to the test reaction except a test compound is not present. Percent inhibition was calculated as […], expressed as a percent.
Human 15-LO was generated in a recombinant 15-lipoxygenase bacculovirus expression system, using Gibco/BRL/Life Technologies' Bac-to-Bac expression reagents; T4 DNA ligase, Kanamycin, Gentamicin, tetracycline, penicillin, streptomycin, Bluo-gal, IPTC; DH10Bac competent cells, SOC, LB medium, Sf-900 II SFM media, Sf9 insect cells, Cell Fectin, and EcoRI, BamHI, and KpnI restriction enzymes.

Row | inhibition (human 15-LO; at 10 μM) [%] | melting point [°C] | IC50 (human 15-LO) [µM] | SMILES
1 | 39 | – | – | COc1ccc(-c2nc3cccnc3[nH]2)cc1N [Chemical Example 1, 5-(3H-imidazo[4,5-b]pyridin-2-yl)-2-methoxy-phenylamine]
2 | – | 252 to 254 | 10 | COc1ccc(-c2nc3cccnc3[nH]2)cc1NS(=O)(=O)c1cccs1 [Chemical Example 2, Thiophene-2-sulfonic acid [5-(3H-imidazo[4,5-b]pyridin-2-yl)-2-methoxy-phenyl]-amide]
